The results in this text go back to PubChem BioAssay AID449732 (Southern Research Specialized Biocontainment Screening …, 2010).

The structures appear in SMILES notation.

The experiment relates to RSV titer reduction in cells, log virus titer. Briefly: RSV replication inhibition by virus titer reduction, cell-based, selected compounds (AID 449732). Particulars: active compounds read high.
Consider `Cc1nc2ccccc2nc1Nc1cccc(Cl)c1`, for which the max log titer decrease is 8.03. With `O=C(Nc1ccc(N2CCCCC2)c(Cl)c1)c1cccnc1`, the max log titer decrease was 9.13. For the compound `CCOC(=O)c1c(-c2cccc(C)c2)csc1NC(=O)c1c(-c2ccccc2)noc1C`, the max log titer decrease was 8.03. As to `Cc1ccc(-n2c(SCC(=O)Nc3ncc(Cl)cc3Cl)nc3ccccc32)cc1`, the max log titer decrease was 8.6. On to `Cc1ccc2c(c1)cc(C(=O)NCc1ccccc1)n2C`, for which the max log titer decrease was 8.03. Regarding `COc1ccc(N(CC(=O)NC2CCCCC2)C(=O)c2ccc(C)s2)c(OC)c1`, the max log titer decrease was 5.13.

With `CCOC(=O)C1=C(NC(=S)NC(=O)c2ccccc2)c2ccccc2CC1C(C)C` (stereo unspecified), the max log titer decrease is 9.13. The result for `O=C(NCc1ccco1)c1ccc(Cn2c(=O)c3ccccc3n(Cc3ccc(Cl)cc3)c2=O)cc1` reads 8.58; that for `CCOc1ccc(CNC(=O)c2cc3oc4ccccc4c3n2C)cc1`, 8.58.

Consider `O=C(CCNC(=O)c1ccc(Cl)cc1)NC1CCCc2ccccc21` (stereo unspecified), for which the max log titer decrease was 8.6. Turning to `Cc1cccc(NC(=O)CSc2nc3ccccc3nc2N2CCCCC2)c1`, the max log titer decrease is 9.13. Consider `CSc1nnc(Cn2c(=O)sc3ccccc32)n1-c1cccc(Cl)c1`, for which the max log titer decrease was 5.47.

As for `COC(=O)c1ccc(NC2c3ncccc3C(=O)N2Cc2cccs2)cc1` (stereo unspecified), the max log titer decrease is 5.08. For `O=S(=O)(c1cccc(-c2csc(-c3ccccc3)n2)c1)N1CCOCC1` the value was 8.58; for `O=[N+]([O-])c1ccccc1S(=O)(=O)Nc1cccc(-c2ccc(N3CCCC3)nn2)c1`, 9.13; for `c1ccc(N2CCN(Cc3nc4ccccc4[nH]3)CC2)nc1`, 4.6.

Regarding `CCc1nc(SCC(=O)N2c3ccccc3CC2C)c2c(C)c(C)sc2n1` (stereo unspecified), the max log titer decrease was 9.13. In the case of `C#CCn1c(S(=O)(=O)Cc2ccc(F)cc2)nc(-c2ccccc2)c1-c1ccccc1`, the max log titer decrease was 3.37. `O=C(CCNC(=O)c1ccc(Br)cc1)NC1CCCc2ccccc21` (stereo unspecified): the max log titer decrease was 8.6. The result for `COC(=O)C1=C(C)N(Cc2ccccc2)C(=O)NC1c1ccccc1` (stereo unspecified) reads 9.13. The result for `c1csc(-c2nn3c(Cn4cnc5ccccc54)nnc3s2)c1` reads 5.14. For `COc1ccc(C(=O)Nc2nc3c(s2)CCCC3)cc1S(=O)(=O)N1CCCc2ccccc21` the value was 8.6; for `COc1ccccc1NCC(=O)Nc1cc(S(=O)(=O)N2CCOCC2)ccc1N1CCOCC1`, 4.6. `Cn1c(C(=O)NCc2ccccc2)cc2oc3ccccc3c21`: the max log titer decrease was 8.58. Regarding `CCCC(c1nnnn1CC(=O)OCC)N(Cc1cc2c(C)cc(C)cc2[nH]c1=O)C1CCCC1` (stereo unspecified), the max log titer decrease is 9.13.

Take `O=C(c1cc2nc(-c3ccccc3)cc(-c3ccccc3)n2n1)N1CCC2(CC1)OCCO2`: the max log titer decrease is 8.03. `Cc1ccc(-c2nc3cccnc3s2)cc1NS(=O)(=O)c1cccs1`: the max log titer decrease is 9.13.

With `CCN(c1ccccc1)S(=O)(=O)c1ccc(Cl)c(NC(=O)CSc2n[nH]c(N)n2)c1`, the max log titer decrease is 8.6. With `CC(C)(C)C(=O)Nc1sc(-c2ccccc2)cc1C(=O)O`, the max log titer decrease is 5.66. Turning to `CCOc1ccc2nc(NC(=O)C(CCSC)NS(=O)(=O)c3cccs3)sc2c1` (stereo unspecified), the max log titer decrease is 8.58.

Take `CN(C)C(=O)COC(=O)c1ccccc1Nc1ccc(SC(F)F)cc1`: the max log titer decrease was 8.6. Consider `COc1ccccc1CNC(=O)C1CCN(S(=O)(=O)c2cccc3nonc23)CC1`, for which the max log titer decrease is 8.58. For `Cc1cccc(-n2c(SCC(=O)Nc3ncc(Cl)cc3Cl)nc3ccccc32)c1` the value was 8.6; for `O=C(O)C1CC=CCC1C(=O)Nc1ccc(S(=O)(=O)N2CCCc3ccccc32)cc1` (stereo unspecified), 8.58; for `O=C(NC(=S)Nc1ccccc1C(=O)O)c1ccc(-c2ccc(Br)cc2)o1`, 8.03. In the case of `CCOC(=O)c1ccc(NC(=S)N2CCSC2c2ccc(Br)cc2)cc1` (stereo unspecified), the max log titer decrease is 8.03. The result for `CSc1ncccc1C(=O)Nc1nc(C(C)(C)C)cs1` reads 5.6; that for `Cc1c(NC(=O)COC(=O)c2cc(-c3ccc(-c4ccccc4)cc3)nc3ccccc23)c(=O)n(-c2ccccc2)n1C`, 8.6; that for `COc1cccc(CNC(=O)c2cc3oc4ccccc4c3n2C)c1OC`, 8.58. With `O=C(CCCOc1ccc(Cl)cc1Cl)Nc1ccccc1C(=O)O`, the max log titer decrease is 8.03. For `Cc1ccc(OCCn2c(C3CC(=O)N(Cc4ccccc4)C3)nc3ccccc32)cc1` (stereo unspecified) the value was 8.6. `CCOC(=O)c1ccc2[nH]c3c(c2c1)CN(C)CC3`: the max log titer decrease is 9.13. As to `CC1Cc2ccccc2N1S(=O)(=O)c1cccc(C(=O)N2CCN(c3ncccn3)CC2)c1` (stereo unspecified), the max log titer decrease was 8.6.

As to `COc1ccc(C(c2c(NC(=O)c3ccco3)sc(C)c2C)N2CCOCC2)cc1OC` (stereo unspecified), the max log titer decrease was 8.58.

Turning to `c1ccc(-c2nn3c(Cn4cnc5ccccc54)nnc3s2)cc1`, the max log titer decrease was 8.58. Turning to `COc1cccc(C(=O)N(Cc2nc(-c3cccc(C)c3)no2)C(C)C)c1OC`, the max log titer decrease was 8.03.

Take `Cc1ccc(NC(=O)C2CCCN2S(=O)(=O)c2cccc3cccnc23)c(C)c1` (stereo unspecified): the max log titer decrease was 8.58. The result for `COCCCNC(=O)c1ccc(Cn2c(=O)c3ccccc3n(Cc3ccc(C)cc3)c2=O)cc1` reads 8.58; that for `Cc1sc2nc(C3CC3)nc(SCC(=O)N3c4ccccc4CC3C)c2c1C` (stereo unspecified), 9.13; that for `O=C(O)c1cccnc1Nc1ccc(Cl)cc1`, 9.13. In the case of `Cc1ccc(CSCC(=O)Nc2ccccc2C(=O)O)cc1`, the max log titer decrease was 8.03.
